The test system of this test is L1210 leukemia ip in BDF1 mice, survival T/C. As to the kind of experiment: NCI In Vivo Anticancer Drug Screen. Data for tumor model L1210 Leukemia (intraperitoneal) in B6D2F1 (BDF1) mice. The note with it: endpoint: mean survival time, higher = longer survival. In outline:
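Transplanted-tumor mice were given test agent; controls received vehicle only. Survival readings from the two groups were divided (treated over control).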

Setting [1] is: dose: 100.0 mg/kg/injection, schedule: Q01DX001 (ip), vehicle: saline with Tween-80.
[2] abbreviates: dose: 200.0 mg/kg/injection, schedule: Q01DX001 (ip), vehicle: saline with Tween-80.
[3] abbreviates: dose: 400.0 mg/kg/injection, schedule: Q01DX001 (ip), vehicle: saline with Tween-80.
Setting [4] is: dose: 100.0 mg/kg/injection, schedule: Q01DX001 (ip), vehicle: saline.
Setting [5] is: dose: 200.0 mg/kg/injection, schedule: Q01DX001 (ip), vehicle: saline.
Where [6] appears, read: dose: 400.0 mg/kg/injection, schedule: Q01DX001 (ip), vehicle: saline.
[7] abbreviates: dose: 100.0 mg/kg/injection, schedule: Q01DX009 (ip), vehicle: other.
The mark [8] stands for this setting: dose: 100.0 mg/kg/injection, schedule: Q04DX003 (ip), vehicle: saline.
The mark [9] stands for this setting: dose: 200.0 mg/kg/injection, schedule: Q04DX003 (ip), vehicle: saline.
Setting [10] is: dose: 400.0 mg/kg/injection, schedule: Q04DX003 (ip), vehicle: saline.

T/C data for 20 compounds are collected here from PubChem BioAssay AID248 (DTP/NCI, 2004).

“And” between values parts separate entries of the source, which are not always exact repeats. Identical values can stand only once. Toxic doses and inconclusive results are not listed.

With `CC(=O)OC1CC2C(C)(C)C(=O)C3OC3C2(C)C2CCC3(C)C(=CC(=O)OC3c3ccoc3)C12C` (configuration not stated), the T/C (dose: 100.0 mg/kg/injection, schedule: Q01DX001 (sc), vehicle: steriod suspending solution) is 101 % of control; the T/C (dose: 200.0 mg/kg/injection, schedule: Q01DX001 (sc), vehicle: steriod suspending solution) was 104 % of control; the T/C (dose: 400.0 mg/kg/injection, schedule: Q01DX001 (sc), vehicle: steriod suspending solution) is 103 % of control.

As to `CCOC(=O)CCSc1ccc(NC(C)=O)cc1`, the T/C under setting [1] was 103 % of control, the T/C under setting [2] is 111 % of control and the T/C under setting [3] is 97 % of control.

Regarding `O=C(O)c1cc(O)cc(O)c1`, the T/C (dose: 25.0 mg/kg/injection, schedule: Q01DX009 (ip), vehicle: Klucel (hydroxypropylcellulose) (HPC)) was 100 % of control; the T/C (dose: 50.0 mg/kg/injection, schedule: Q01DX009 (ip), vehicle: Klucel (hydroxypropylcellulose) (HPC)) was 97 % of control; the T/C (dose: 100.0 mg/kg/injection, schedule: Q01DX009 (ip), vehicle: Klucel (hydroxypropylcellulose) (HPC)) was 100 % of control.

As for `C=CCc1ccc(OC(=O)Nc2ccc(S(=O)(=O)N(C)C)cc2)c(OC)c1`, the T/C is 94 % of control under setting [4], 91 % of control under setting [5] and 91 % of control under setting [6].

In the case of `Cc1cc(Cl)nc2ccc(Cc3ccc4nc(Cl)cc(C)c4c3)cc12`, the T/C runs as follows: under setting [4], 91 % of control; under setting [5], 94 % of control; under setting [6], 96 % of control.

In the case of `CC(=O)NC(=O)NC(=O)CC#N`, the T/C (dose: 100.0 mg/kg/injection, schedule: Q01DX001 (ip), vehicle: Klucel (hydroxypropylcellulose) (HPC)) was 90 % of control; the T/C (dose: 200.0 mg/kg/injection, schedule: Q01DX001 (ip), vehicle: Klucel (hydroxypropylcellulose) (HPC)) is 88 % of control; the T/C (dose: 400.0 mg/kg/injection, schedule: Q01DX001 (ip), vehicle: Klucel (hydroxypropylcellulose) (HPC)) was 93 % of control.

Consider `CCCCCC(=O)C#Cc1ccccc1`, for which the T/C by setting is: (dose: 6.25 mg/kg/injection, schedule: Q01DX009 (ip), vehicle: other) 90 % of control; (dose: 12.5 mg/kg/injection, schedule: Q01DX009 (ip), vehicle: other) 95 % of control; (dose: 25.0 mg/kg/injection, schedule: Q01DX009 (ip), vehicle: other) 94 % of control and 96 % of control; (dose: 50.0 mg/kg/injection, schedule: Q01DX009 (ip), vehicle: other) 91 % of control; under setting [7], 93 % of control and 86 % of control.

Regarding `CCOC(=O)/C=C/c1c(OC)cc(OC)cc1OC`, the T/C under setting [7] was 97 % of control; the T/C under setting [8] is 101 % of control; the T/C (dose: 200.0 mg/kg/injection, schedule: Q01DX009 (ip), vehicle: other) is 106 % of control; the T/C under setting [9] is 101 % of control; the T/C (dose: 400.0 mg/kg/injection, schedule: Q01DX009 (ip), vehicle: other) was 94 % of control; the T/C under setting [10] was 93 % of control.

In the case of `CC(=O)Nc1ccn(C2OC(CO)C(O)C2O)c(=O)n1` (configuration not stated), the T/C is 166 % of control (dose: 200.0 mg/kg/injection, schedule: Q01DX009 (ip), vehicle: saline) and 163 % of control (dose: 400.0 mg/kg/injection, schedule: Q01DX009 (ip), vehicle: saline).

As to `CN(C)c1ccc(NC2=NCCO2)cc1`, the T/C runs as follows: (dose: 12.5 mg/kg/injection, schedule: Q04DX003 (ip), vehicle: saline) 95 % of control; (dose: 25.0 mg/kg/injection, schedule: Q01DX009 (ip), vehicle: saline) 104 % of control; (dose: 25.0 mg/kg/injection, schedule: Q04DX003 (ip), vehicle: saline) 102 % of control; (dose: 50.0 mg/kg/injection, schedule: Q01DX009 (ip), vehicle: saline) 95 % of control; (dose: 50.0 mg/kg/injection, schedule: Q04DX003 (ip), vehicle: saline) 98 % of control; under setting [8], 97 % of control. In addition, the T/C under setting [9] was 87 % of control.

For the compound `O=C(O)C1CCCCC1C(=O)Nc1ccc(Br)cc1` (configuration not stated), the T/C (dose: 100.0 mg/kg/injection, schedule: Q04DX002 (ip), vehicle: Klucel (hydroxypropylcellulose) (HPC)) is 100 % of control; the T/C (dose: 200.0 mg/kg/injection, schedule: Q04DX002 (ip), vehicle: Klucel (hydroxypropylcellulose) (HPC)) is 100 % of control; the T/C (dose: 400.0 mg/kg/injection, schedule: Q04DX002 (ip), vehicle: Klucel (hydroxypropylcellulose) (HPC)) was 118 % of control.

Regarding `Cc1cc(Cl)ccc1NC(=O)OCCSc1ccc(Cl)cc1`, the T/C (dose: 100.0 mg/kg/injection, schedule: Q01DX001 (ip), vehicle: gum acacia) was 94 % of control; the T/C (dose: 100.0 mg/kg/injection, schedule: Q01DX009 (ip), vehicle: gum acacia) is 94 % of control and 95 % of control; the T/C (dose: 100.0 mg/kg/injection, schedule: Q04DX003 (ip), vehicle: gum acacia) is 93 % of control and 94 % of control; the T/C (dose: 200.0 mg/kg/injection, schedule: Q01DX001 (ip), vehicle: gum acacia) is 101 % of control; the T/C (dose: 200.0 mg/kg/injection, schedule: Q01DX009 (ip), vehicle: gum acacia) was 97 % of control and 91 % of control; the T/C (dose: 200.0 mg/kg/injection, schedule: Q04DX003 (ip), vehicle: gum acacia) was 97 % of control. Moreover, the T/C (dose: 400.0 mg/kg/injection, schedule: Q01DX001 (ip), vehicle: gum acacia) is 101 % of control; the T/C (dose: 400.0 mg/kg/injection, schedule: Q01DX009 (ip), vehicle: gum acacia) was 93 % of control and 98 % of control; the T/C (dose: 400.0 mg/kg/injection, schedule: Q04DX003 (ip), vehicle: gum acacia) is 95 % of control and 90 % of control.

With `CC(=O)Nc1ccc(S(=O)(=O)NC(C)=O)cc1`, the T/C runs as follows: (dose: 100.0 mg/kg/injection, schedule: Q01DX001 (ip), vehicle: other) 94 % of control; (dose: 100.0 mg/kg/injection, schedule: Q01DX009 (ip), vehicle: saline with Tween-80) 108 % of control; (dose: 200.0 mg/kg/injection, schedule: Q01DX001 (ip), vehicle: other) 96 % of control; (dose: 400.0 mg/kg/injection, schedule: Q01DX001 (ip), vehicle: other) 107 % of control; (dose: 400.0 mg/kg/injection, schedule: Q01DX009 (ip), vehicle: saline with Tween-80) 97 % of control.

As for `Cc1ccc(C(O)CCN2CCOCC2)c(C)c1` (configuration not stated), the T/C reads like this: under setting [4], 102 % of control; under setting [5], 104 % of control.

For `C=C(C)CNC(=O)Oc1cccc(NC(=O)OC)c1`, the T/C reads like this: under setting [1], 97 % of control; under setting [2], 95 % of control; under setting [3], 92 % of control.

For `COC(=O)CCNC(=O)C1CSC(C)(C)N1C=O` (configuration not stated), the T/C runs as follows: under setting [8], 97 % of control; under setting [9], 97 % of control; under setting [10], 90 % of control.

As for `CCCCCCCCCCCCCC=C(C)C`, the T/C is 94 % of control under setting [1], 94 % of control under setting [2] and 87 % of control under setting [3].

`CC(=O)/C=C/c1c[nH]c(=O)[nH]c1=O`: the T/C runs as follows: (dose: 100.0 mg/kg/injection, schedule: Q04DX002 (ip), vehicle: saline with Tween-80) 104 % of control; (dose: 200.0 mg/kg/injection, schedule: Q04DX002 (ip), vehicle: saline with Tween-80) 104 % of control; (dose: 400.0 mg/kg/injection, schedule: Q04DX002 (ip), vehicle: saline with Tween-80) 93 % of control.

Turning to `CC(=O)c1ccc[n+](Cc2ccc3c(c2)OCO3)c1`, the T/C is 103 % of control (dose: 75.0 mg/kg/injection, schedule: Q01DX001 (ip), vehicle: carboxymethylcellulose (CMC)) and 109 % of control (dose: 150.0 mg/kg/injection, schedule: Q01DX001 (ip), vehicle: carboxymethylcellulose (CMC)).

For the compound `COc1cc2cc3c4cc(OC)c(OC)cc4cc[n+]3c(/C=C/c3cccc(O)c3)c2cc1OC`, the T/C (dose: 25.0 mg/kg/injection, schedule: Q04DX002 (ip), vehicle: carboxymethylcellulose (CMC)) was 97 % of control and 108 % of control; the T/C (dose: 50.0 mg/kg/injection, schedule: Q04DX002 (ip), vehicle: carboxymethylcellulose (CMC)) was 101 % of control; the T/C (dose: 100.0 mg/kg/injection, schedule: Q01DX001 (ip), vehicle: carboxymethylcellulose (CMC)) was 102 % of control and 110 % of control; the T/C (dose: 200.0 mg/kg/injection, schedule: Q01DX001 (ip), vehicle: carboxymethylcellulose (CMC)) was 110 % of control and 119 % of control; the T/C (dose: 400.0 mg/kg/injection, schedule: Q01DX001 (ip), vehicle: carboxymethylcellulose (CMC)) is 98 % of control and 114 % of control; the T/C (dose: 400.0 mg/kg/injection, schedule: Q04DX002 (ip), vehicle: carboxymethylcellulose (CMC)) was 105 % of control and 115 % of control.
